Read-outs that look alike come from different tables or passages of the source.
Columns and labels:
[1] = target: T1, sterol C24-methyltransferase (TbSMT) (Trypanosoma brucei, UniProt Q4FKJ2); assay: recombinant enzyme activity assay, Lineweaver-Burk inhibition; format: biochemical
T1 sequence (Q4FKJ2 1-359): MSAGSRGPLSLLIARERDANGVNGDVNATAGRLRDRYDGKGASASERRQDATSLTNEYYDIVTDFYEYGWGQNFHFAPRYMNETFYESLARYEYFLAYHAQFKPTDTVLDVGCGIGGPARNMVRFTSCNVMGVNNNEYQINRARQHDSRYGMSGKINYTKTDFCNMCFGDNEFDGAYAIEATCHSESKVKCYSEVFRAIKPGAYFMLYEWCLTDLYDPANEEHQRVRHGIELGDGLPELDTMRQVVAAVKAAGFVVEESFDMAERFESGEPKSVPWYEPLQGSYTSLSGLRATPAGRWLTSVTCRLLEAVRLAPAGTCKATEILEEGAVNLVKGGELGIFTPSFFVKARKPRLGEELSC

[2] = target: T1, sterol C24-methyltransferase (TbSMT); format: biochemical

Row | SMILES | Ki [1] | Ki [2]
1 | CC(=CCC[C@@H](C)[C@H]1CC[C@@]2(C)C3=C(CC[C@]12C)[C@@]1(C)CC[C@H](O)C(C)(C)[C@@H]1CC3)CF [26FL, 26-fluorolanosterol] | 85 µM | 
2 | CC(=CCC[C@@H](C)[C@H]1CC[C@H]2C3=CC=C4C[C@@H](O)CC[C@]4(C)[C@H]3CC[C@]12C)CF [26FCT, 26-fluorocholesta-5,7,24-trienol] |  | 75 µM

Source: PMC4624405 (Chemistry & biology, 2015)
